Here are results for one compound from patent publication US20130158112A1, “COMPOSITIONS AND METHODS FOR INHIBITING BETA AMYLOID SECRETION” (priority 2011, published 2013).

SMILES strings stand for the structures. Values joined by “and” are separate entries in the source; they are usually repeats but may differ in a detail not shown here. Identical values can stand only once. Like-named read-outs stand apart in the source and are kept apart here.

Series [1] concerns H4βAPP695 wt cells. Put plainly: Cytotoxicity by total cell protein content (BCA) of H4βAPP695 wt cells. Conditions: cytotoxicity.
Series [2] concerns cerebral Aβ levels. Put plainly: In vivo iv administration and cerebral Aβ assay. The arrangement: species or system mouse. Conditions: APP/PS1 transgenic mice, iv 100 to 125 mg/kg single dose, 6 h. How it is done: Transgenic mice expressing humanized mutant versions of APP and presenilin 1 (APPswe, PSEN1dE9) on the C57BL/6 genetic background were obtained from Jackson Laboratories (strain no. 5864) and bred to wild type C57BL/6 mice in order to obtain ˜50% transgenic that were used in these studies. These mice develop Aβ senile plaques by 6 months of age. To prepare the drug stock, 17.5 mg of compound 48 was dissolved in 40 μL of DMSO, which was mixed sequentially with 110 μL of Cremophor EL (Sigma) and 900 μL of sterile saline. Two month old female transgenic mice weighing 20-25 g were anesthetized with ketamine/xylazine and injected iv via the retroorbital plexus with vehicle control or with 2.5 mg of compound 48 in 150 μL of the drug stock (yielding a dose of ˜100 to 125 mg/kg). Six h later, the mice were euthanized by CO2 inhalation, the brains were removed, and the cerebellum discarded. One brain hemisphere was homogenized for 45 s on ice using a tissue grinder in 1 mL of solution containing 5 M guanadine HCl, 50 mM Tris (final pH adjusted to 8.3), and 5% protease inhibitor cocktail. Any debris was removed by centrifugation for 10 min at 2000 g. The supernatant was diluted 1:10 in 20% casein blocker in PBS with 5% protease inhibitor cocktail. […] The protein concentration of the brain homogenate was determined with the BCA assay, and the total Aβ levels were normalized to brain protein levels. […]

Series [3] concerns THLE-3 human hepatoma cells. Put plainly: Drug activity persistence after incubation with THLE-3 hepatoma cells. The class given is in vitro ADME. The following applies: for inhibition at 10 µM: Homo sapiens, THLE3, 24 h. How it is done: (§1) H4βAPP695 wt cells, a human […] cell line stably transfected with a wtβAPP695 expression vector construct under the control of a CMV promoter (kindly provided by Dr. Chris Eckman from Mayo Clinic, Florida) were cultured as previously described. Twenty-four hours before drug treatment, the media was replaced with serum-free media. Cells were then incubated with drugs (dissolved in DMSO) or vehicle for 24 h for collection of conditioned media and cell lysates. For the PKC inhibitors experiment, three inhibitors were treated 30 min prior to drug challenge. Primary cortical neurons were prepared from embryonic day 18 APP and presenilin 1 (APPswe, PSEN1dE9) transgenic mice on the C57BL/6 genetic background (Jackson Laboratories, strain no. 5864) as previously described. THLE-3 human hepatoma cells (from ATCC) were plated in 24-well plates that were precoated with 10 μg/mL bovine serum albumin, 10 μg/mL fibronectin, and 30 μg/mL bovine type I collagen. The cells were grown in BEGM media (Clonetics) until confluent and treated with drugs at 20 μM for 24 h. This conditioned media was harvested, diluted 1:1 in serum-free medium, and incubated with H4βAPP695 wt cells for 24 h prior to analysis of secreted Aβ, which was compared to the effect of 10 μM drug treatments without prior incubation with the THLE-3 cells. Caco-2 cells (ATCC) were plated in 12-well plates with Transwell inserts (Costar) at 70000 cells per well and grown for 21 days. The media volume of the apical and basal chambers was 0.5 and 1.5 mL, respectively. Transepithelial resistance was measured in each well and found to be >160 Ω/cm^2. Drugs at 40 μM and 20 μg/mL of lucifer yellow were added in serum-free medium to the apical chamber. Four hours later, the basal chamber media was harvested and used to measure lucifer yellow fluorescence to confirm monolayer integrity as well as for treatment of H4βAPP695 wt cells for 24 h prior to analysis of secreted Aβ, which was compared to the effect of direct addition of 10 μM of the corresponding drug.
To screen for resistance to metabolism, 1 and eight noncytotoxic analogues with >50% Aβ reducing activity (compounds 27, 29, 48, 52, 53, 65, 73, and 76) were incubated at 20 μM for 24 h with or without THLE-3 human hepatoma cells.

Series [4] concerns cerebral Aβ levels. Description: Oral treatment and cerebral Aβ ELISA in mutant APP/PS1 transgenic mice. The class given is in vivo, mouse. Conditions: 3 oral gavages, estimated 200 mg/kg in Cremaphor over 1.5 day. The procedure:
(§2) In this Example, mutant APP/PS1 transgenic mice were obtained from Dr. Mathias Jucker (R Radde et al. 2006, EMBO Reports 7:940-946). […] The drug was milled into the chow diet (Harlan Teklad #2018) at 4 doses: 0.31, 0.62, 1.25, and 2.5 g/kg. Assuming each mouse eats 4 g of per day, the lowest dose should yield 1.24 mg intake per day, or about 75 mg/kg body weight. Six-week old female transgenic mice were fed ad librium with the chow diet or the diet supplemented with the four drug doses. […] At the end of the study, brains were isolated, and half brains were homogenized in a buffer containing guanidine hydrochloride and SDS. This extract was diluted and used in assays for total protein and an ELISA for Abeta levels. […] There was not a dose response in this study, as the effect appeared to plateau out even at the lowest dose of the drug, 0.31 g/kg diet. This oral diet study supported a prior finding using 3 oral gavages of this drug at an estimated dose of 200 mg/kg body weight delivered in Cremaphor over a 1.5 day period in which we observed a 30% decrease in cerebral Aβ levels (data not shown).

Series [5] has as its system Aβ secretion. Put plainly: Secreted total Aβ ELISA in conditioned media of H4βAPP695 wt cells. The class given is cell-based, human. A digest of the protocol: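 H4 […] cells stably expressing wild-type βAPP695 (CMV promoter), serum-starved 24 h, then exposed to drug in DMSO or vehicle for 24 h before Aβ in conditioned media was measured. Primary cortical neurons came from E18 APPswe/PSEN1dE9 mice on C57BL/6 background.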
(An ELISA detects its analyte on a solid surface through an enzyme-linked reagent.)

Series [6] in a line: Body weight after one-week oral feeding. The class given is in vivo, mouse. Conditions: 0.31-2.5 g/kg in chow diet. The procedure: as §2
For series [7], the system named is Caco-2 cells. Put plainly: Epithelial transcellular transport of drug activity through Caco-2 monolayers. The class given is in vitro ADME. The procedure:
as §1
Monolayer integrity was confirmed by high levels of transcellular electrical resistance (>160 ohms/cm^2) and by transcellular impermeability to the fluorescent dye lucifer yellow. […] The concentration of each compound added to the upper chamber would lead to 10 μM in the lower chamber if equilibration was complete, and thus the activity of the lower chamber media was compared to the activity of 10 μM drug added directly to the H4βAPP695 wt cells. […] Compound 1 crossed the monolayer and the bottom chamber media led to a 27% reduction in Aβ production, yielding 38% of the theoretical activity. The compound with the most activity in the lower chamber was compound 48, which decreased Aβ production by 50%, with 71% of its theoretical activity. […] On the basis of the combined activity data from these last two studies, compound 48 was selected as the lead drug for in vivo study.
A general note: Caco-2 monolayers are a common model of the intestinal barrier.

For the compound `Cc1cccc(CSCCNC(=O)c2c(Cl)cccc2Cl)c1` [Compound 48, 2,6-Dichloro-N-[2-(3-methyl-benzylsulfanyl)-ethyl]-benzamide], the melting point (commonly the temperature, or range, at which the solid turns liquid) lay within 56 to 57 °C. The “Cell protein (% decrease) 10 μM Mean” value in series [1] (10 μM) stood at 11.7%. Also, the “Cell protein (% decrease) 30 μM Mean” value in series [1] (30 μM) is on record as 16.6%. Moreover, the “reduction in cerebral Aβ levels” value in series [2] is on record as 39.6%. In series [3] (10 μM on H4 cells, without preincubation with hepatoma cells, read-out: hepatoma incubation No total Aβ (% decrease)), the inhibition at 10 µM came to 70.5%. Besides, the inhibition at 10 µM in series [3] (20 μM preincubated 24 h with THLE-3 hepatoma cells, diluted to 10 μM on H4 cells, read-out: hepatoma incubation Yes total Aβ (% decrease)) was 38%. In addition, the “% remaining Activity” value in series [3] (after 24 h incubation with hepatoma cells) is given as 54%. Moreover, the “decrease in cerebral Aβ levels, oral gavage” value in series [4] is 30%. Besides, in series [5] (Homo sapiens, 24 h, 30 μM, H4βAPP695 wt cells, 24 h, read-out: Total Aβ (% decrease) 30 μM Mean), the inhibition at 30 µM turned out to be 85.8%. Besides, the “Aβ secretion inhibiting activity (structure activity summary)” value in series [5] (in words) is given as “good activity”. Besides, in series [6], the “effect on body weights” value is “no significant effect”. Further, the “% theoretical activity” value in series [7] (% of activity passing through Caco-2 monolayer) is 71% and 70.8%. For the same compound, the inhibition at 10 µM in series [7] (Homo sapiens, Caco-2, 10 μM drug alone added directly to H4βAPP695 wt cells, read-out: transcellular transport No total Aβ (% decrease)) was found to be 70.5%. The inhibition at up to 10 µM in series [7] (Homo sapiens, Caco-2, 4 h, lower chamber media after 4 h on Caco-2 monolayer, 10 μM if in equilibrium, read-out: transcellular transport Yes total Aβ (% decrease)) is 50%.
